Structures are written as SMILES.

This experiment deals with T1, Kinase A and SpoOF (Bacillus subtilis, UniProt P16497).
T1 construct: made in house; host or cells: recombinant E. coli (overexpression)
T1 sequence (P16497 1-606): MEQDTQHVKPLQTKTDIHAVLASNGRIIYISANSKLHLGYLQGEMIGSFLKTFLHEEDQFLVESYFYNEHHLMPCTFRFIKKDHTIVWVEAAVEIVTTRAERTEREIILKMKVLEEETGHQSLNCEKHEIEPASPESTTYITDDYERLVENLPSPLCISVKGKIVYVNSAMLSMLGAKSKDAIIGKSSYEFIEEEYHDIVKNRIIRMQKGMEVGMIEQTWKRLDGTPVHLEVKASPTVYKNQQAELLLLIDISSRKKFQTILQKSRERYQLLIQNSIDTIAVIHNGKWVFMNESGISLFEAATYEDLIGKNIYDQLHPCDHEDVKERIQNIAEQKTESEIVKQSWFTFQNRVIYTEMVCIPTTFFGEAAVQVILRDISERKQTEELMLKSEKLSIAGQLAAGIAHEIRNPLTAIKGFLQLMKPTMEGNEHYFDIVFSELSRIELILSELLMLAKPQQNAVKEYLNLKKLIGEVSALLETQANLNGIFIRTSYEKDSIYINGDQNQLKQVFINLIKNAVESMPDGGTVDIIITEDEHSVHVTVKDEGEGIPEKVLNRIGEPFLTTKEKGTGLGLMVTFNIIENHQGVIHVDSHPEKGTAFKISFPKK
The experiment can be described thus: Autophosphorylation of Kinase A and Transphosphorylation of SpoOF Assay (HPK in vitro assay). Format: biochemical. To be noted: inhibition of KinA autophosphorylation / SpoOF transphosphorylation, inhibitor concentrations from 1 to 500 μM. The procedure: 1. Autophosphorylation of Kinase A and Transphosphorylation of SpoOF Assay
To study the effect of the compounds of the present invention on the signal transduction process in bacteria, the inhibiting effect of the compounds on the sporulation operon proteins Kinase A and SpoOF was examined. Specifically, the inhibition of autophosphorylation of Kinase A and the transphosphorylation of SpoOF was determined in the following assays. The SpoOF response regulator is the primary substrate for phosphorylation by the protein kinase, Kin A, involved in the sporulation process in bacteria. See D. Burbulys, K. A. Trach, J. A. Hoch, Cell, 64, 545-552 (1991). SpoOF and KinA were prepared from recombinant E. coli overexpressing the proteins (J. Cavanagh et al, Amino Acids, 6, 131-140 (1994) and references therein).
The following stock reagents were either prepared and used promptly or stored at the indicated temperature:
8× Salts: 2M KCl (5 mL), 1M MgCl2 (800 mL), 1M CaCl2 (100 mL), 10 mg/mL phenylmethylsulfonyl fluoride (200 mL), 1M dithioreitol (50 mL), 0.25M Na2 EDTA (32 mL) and H2 O 3.82 mL (-20° C.)
5× Loading Dye: 0.5M TRIS-HCl-pH 6.8 (7.5 mL), 10% SDS (2 mL) 0.1% bromophenol blue (0.5 mL), 100% glycerol (3 mL) and 12.5M 2-mercaptoethanol (0.3 mL)
1-1.3 mg/mL KinA:15 mM TRIS-HCl, pH 8.0, 6 mM KCl; 4 mM 2-mercaptoethanol; 40% glycerol (-20° C.)
1 mg/mL SpoOF: 17.5 mM TRIS-HCl, pH 8.0; 0.7 mM KCl; 0.7 mM MgCl2; 0.7 mM CaCl2; 5mM 2-mercaptoethanol; 30% Glycerol (-20° C.)
5% Stacking Gel: 40% 29:1 acrylamide:bis acrylamide (1.25 mL), 0.5M TRIS-HCl, pH 6.8 (2.5 mL), 10% SDS (0.1 mL), D-H2 O (6.15 mL) 10% ammonium persulfate (100 mL) and TEMED (25 mL)
SDS Running Buffer: TRIS-BASE (3.02 g), glycine (14.4 g) SDS (1 g), D-H2 O (to 1 L)
The reaction mixture was prepared from 8× Salts (87 μL), 1M TRIS, pH 8 (118 μL), 50% glycerol (63 μL), SpoOF (14.1 μL) and KinA (7.0 μL). Microcentrifuge tubes were charged with the reaction mixture (18.5 μL) and a 1.0 mM solution of the test compound in 5% DMSO (18.5 μL), and incubated for 15 min on ice. 100 mM ATP solution (3.0 μl, containing 625 μCi [^32 P]ATP) was added, and the mixture left for 10 minutes at room temperature. The reaction was quenched with 5× loading dye (10 μL per tube) and the samples were loaded on a prepared 5% Stacking Gel, or stored on dry ice until ready for use. The prepared wells were filled with SDS Running Buffer, samples were loaded into the wells, and 80 volts were applied to the gel until the dye front reached the bottom of the stacking gel. The voltage was then increased to 250 volts until electrophoresis was complete. Radioactive bands in the gel corresponding to phosphorylated KinA and SpoOF were imaged and quantitated with a phosphoimager.
If either enzyme was inhibited (as evidenced by the absence of labelled protein in the developed gel), an IC50 was calculated by running the assay with a range of inhibitor concentrations from 1 to 500 μM. After electrophoresis of the reaction mixtures, percent inhibition was determined by measuring the concentration of radioactive phosphorus with a phosphoimager and calculating the values using a software program (BioRad Molecular Analyst). IC50 values of less than 500 μM are considered active.
For `CN1C(=O)C(CCOc2ccc(CCNC(=NC(=O)OC(C)(C)C)NC(=O)OC(C)(C)C)cc2)Oc2ccccc21` (centres unmarked) [Compound 59, 2-{2-[4-[2-(N,N'-Bis-tert-butoxycarbonylguanidino)ethyl]phenoxy]ethyl}-3,4-dihydro-4-methyl-3-oxo-2H-1,4-benzoxazine], the half-inhibitory concentration (IC50) amounted to 473 µM.

As to `N=C(N)NCCc1ccc(OCCC2Oc3ccncc3N(Cc3cccc(Cl)c3)C2=O)cc1` (centres unmarked) [Compound 62, 4-(3-Chlorobenzyl)-3,4-dihydro-2-[2-[4-(2-guanidinoethyl)phenoxy]ethyl]-3-oxo-2H-pyrido[4,3-b]-1,4-oxazine], the IC50 is on record as 174 µM.

`Cc1ccc(CN2CC(CCOc3ccc(CCNC(=N)N)cc3)Oc3ccccc32)cc1` (centres unmarked) [Compound 66, 3,4-Dihydro-2-{2-[4-[2-guanidinoethyl]phenoxy]ethyl}-4-(4-methylbenzyl)-2H-1,4-benzoxazine]: the IC50 came out at 19 µM.

`N=C(N)NCCc1ccc(OCCC2CN(Cc3ccc(Cl)cc3Cl)c3ccccc3O2)cc1` (centres unmarked) [Compound 68, (2,4-Dichlorobenzyl)-3,4-dihydro-2-{2-[4-(2-guanidinoethyl)phenoxy]ethyl}-4-2H-1,4-benzoxazine] came in with an IC50 of 17 µM.

`CC(C)(C)OC(=O)NCCc1cccc(OCCC2Oc3ccccc3N(Cc3cccc(Cl)c3)C2=O)c1` (centres unmarked) [Compound 69, 2-{2-[3-(2-(t-Butoxycarbonylamino)ethyl)phenoxy]ethyl}-4-(3-chlorobenzyl)-3,4-dihydro-3-oxo-2H-1,4-benzoxazine] yielded an IC50 of 358 µM.

`CC(C)(C)OC(=O)N=C(NCCc1ccc(OCCC2Oc3ccccc3N(Cc3cccc(Cl)c3)C2=O)cc1)NC(=O)OC(C)(C)C` (centres unmarked) [Compound 71, 2-{2-[4-[2-(N,N-'Bis-tert-butoxycarbonylguanidino)ethyl]phenoxy]ethyl}-4-(3-chlorobenzyl)-3,4-dihydro-3-oxo-2H-1,4-benzoxazine] gave an IC50 of 300 µM.

`CC(C)(C)OC(=O)NCc1cccc(OCCC2Oc3ccccc3N(Cc3cccc(Cl)c3)C2=O)c1` (centres unmarked) [Compound 73, 2-{2-[3-(t-Butoxycarbonylaminomethyl)phenoxy]ethyl}-4-(3-chlorobenzyl)-3,4-dihydro-3-oxo-2H-1,4-benzoxazine] came in with an IC50 of 354 µM.

Turning to `CC(C)(C)OC(=O)N=C(NCc1ccc(OCCC2Oc3ccccc3N(Cc3cccc(Cl)c3)C2=O)cc1)NC(=O)OC(C)(C)C` (centres unmarked) [Compound 77, 2-{2-[4-[(N,N-'Bis-tert-butoxycarbonyl)guanidinomethyl]phenoxy]ethyl}-4-(3-chlorobenzyl)-3,4-dihydro-3-oxo-2H-1,4-benzoxazine], the IC50 is reported as 51 µM.

In the case of `CC(C)(C)OC(=O)N=C(NCCc1ccc(OCCC2Oc3cc([N+](=O)[O-])ccc3N(Cc3cccc(Cl)c3)C2=O)cc1)NC(=O)OC(C)(C)C` (centres unmarked) [Compound 80], the IC50 is reported as 162 µM.

Take `Cl.NCCc1ccc(OCCC2Oc3cc([N+](=O)[O-])ccc3N(Cc3cccc(Cl)c3)C2=O)cc1` (centres unmarked) [Compound 82, 2-{2-[4-(2-Aminoethyl)phenoxy]ethyl}-4-(3-chlorobenzyl)-3,4-dihydro-7-nitro-3-oxo-2H-1,4-benzoxazine monohydrochloride]: the concentration for half-maximal inhibition (IC50) is reported as 27 µM.

In the case of `Cl.N=C(N)NCCc1ccc(OCCC2Oc3cc([N+](=O)[O-])ccc3N(Cc3cccc(Cl)c3)C2=O)cc1` (centres unmarked) [Compound 84, 3,4-Dihydro-4-(3-chlorobenzyl)-2-{2-[4-(2-guanidinoethyl)phenoxy]ethyl}-7-nitro-3-oxo-2H-1,4-benzoxazine Monohydrochloride], the IC50 came out at 30 µM.

Take `Cl.N=C(N)NCCc1ccc(OCCC2Oc3cc([N+](=O)[O-])ccc3N(Cc3ccccc3Cl)C2=O)cc1` (centres unmarked) [Compound 87, 4-(2-Chlorobenzyl)-3,4-dihydro-2-{2-[4-(2-guanidinoethyl)phenoxy]ethyl}-7-nitro-3-oxo-2H-1,4-benzoxazine Monohydrochloride]: the IC50 is listed as 11 µM.

Take `N=C(N)NCCc1ccc(OCCC2Oc3cc([N+](=O)[O-])ccc3N(Cc3cccc([N+](=O)[O-])c3)C2=O)cc1` (centres unmarked) [Compound 91, 3,4-Dihydro-2-{2-[4-(2-guanidinoethyl)phenoxy]ethyl}-7-nitro-4-(3-nitrobenzyl)-3-oxo-2H-1,4-benzoxazine]: the IC50 was determined as 33 µM.

With `N=C(N)NCCc1ccc(OCCC2Oc3ccccc3N(Cc3cccc([N+](=O)[O-])c3)C2=O)cc1` (centres unmarked) [Compound 95, 3,4-Dihydro-2-{2-[4-(2-guanidinoethyl)phenoxy]ethyl}-4-(3-nitrobenzyl)-3-oxo-2H-1,4-benzoxazine], the IC50 is 32 µM.

In turn, `N=C(N)NCCc1ccc(OCCC2Oc3cc([N+](=O)[O-])ccc3N(Cc3ccc([N+](=O)[O-])cc3)C2=O)cc1` (centres unmarked) [Compound 97, 3,4-Dihydro-2-{2-[4-(2-guanidinoethyl)phenoxy]ethyl}-7-nitro-4-(4-nitrobenzyl)-3-oxo-2H-1,4-benzoxazine] came in with an IC50 of 53 µM.

Regarding `COc1ccc2c(c1)OC(CCOc1ccc(CCNC(=NC(=O)OC(C)(C)C)NC(=O)OC(C)(C)C)cc1)C(=O)N2Cc1cccc([N+](=O)[O-])c1` (centres unmarked) [Compound 99, 2-{2-[4-(2-(N,N'-Bis-tert-butoxycarbonylguanidino)ethyl)phenoxy]ethyl}-3,4-dihydro-7-methoxy-4-(3-nitrobenzyl)-3-oxo-2H-1,4-benzoxazine], the IC50 came to 343 µM.

`COc1ccc2c(c1)OC(CCOc1ccc(CCNC(=N)N)cc1)C(=O)N2Cc1cccc([N+](=O)[O-])c1` (centres unmarked) [Compound 100, 3,4-Dihydro-2-{2-[4-(2-guanidinoethyl)phenoxy]ethyl}-7-methoxy-4-(3-nitrobenzyl)-3-oxo-2H-1,4-benzoxazine] yielded an IC50 of 32 µM.

Take `COC(=O)c1ccc(CN2C(=O)C(CCOc3ccc(CCN)cc3)Oc3ccccc32)cc1` (centres unmarked) [Compound 104, 2-{2-[4-(2-Aminoethyl)phenoxy]ethyl}-4-(4-carbomethoxybenzyl)-3,4-dihydro-3-oxo-2H-1,4-benzoxazine]: the IC50 stood at 24 µM.

In turn, `COC(=O)c1cccc(CN2C(=O)C(CCOc3ccc(CCN)cc3)Oc3ccccc32)c1` (centres unmarked) [Compound 106, 2-{2-[4-(2-Aminoethyl)phenoxy]ethyl}-4-(3-carbomethoxybenzyl)-3,4-dihydro-3-oxo-2H-1,4-benzoxazine] showed a half-inhibitory concentration (IC50) of 166 µM.

The molecule `NCCc1ccc(OCCC2Oc3ccccc3N(Cc3ccc(C(=O)O)cc3)C2=O)cc1` (centres unmarked) [Compound 110, 4-{3,4-Dihydro-2-[2-(4-(2-aminoethyl)phenoxy)]ethyl-3-oxo-2H-1,4-benzoxazin-4-yl}methylbenzoic Acid] had an IC50 of 324 µM.

Broadly, the IC50 is the concentration at which inhibition is half-maximal.

The values above are taken from patent US5696117A, “Benzoxazine antimicrobial agents” (Ortho Pharmaceutical Corporation, priority 1995, dated 1997).
